How the values were obtained:
Test in all cases: Bliss excess, mean over the matrix (fraction); higher = more synergy
[1] = test system: C-33-A (Cervical Carcinoma)
Method in brief: (§1)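 Cell lines grown in DMEM/F12 or RPMI with 10% FBS were plated in 1536-well plates and held 24 hours at 37°C, 5% CO2 before 72 hours of exposure to two-drug dose matrices, with DMSO typically at 0.2%. CellTiter-Glo 2.0 luminescence gave viability, which was converted to inhibition. Vehicle wells were set to 0 and blank wells to 1. Combination Emax is the second-highest inhibition in the matrix, and Bliss excess is the observed combination effect minus the expected EA + EB − EA·EB, where EA and EB are the single-agent effects.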

[2] = test system: CPC-N (Small Cell Lung Carcinoma)
Method in brief: as §1

ES6 (Ewing's Sarcoma) = test system: ES6 (Ewing's Sarcoma)
Method in brief: as §1

GAK (Melanoma) = test system: GAK (Melanoma)
Method in brief: as §1

[3] = test system: HPAF-II (Pancreatic Carcinoma)
Method in brief: as §1

[4] = test system: IA-LM (Non-Small Cell Lung Carcinoma)
Method in brief: as §1

IST-MEL1 (Melanoma) = test system: IST-MEL1 (Melanoma)
Method in brief: as §1

[5] = test system: LCLC-103H (Non-Small Cell Lung Carcinoma)
Method in brief: as §1

[6] = test system: LS-1034 (Colorectal Carcinoma)
Method in brief: as §1

[7] = test system: MDA-MB-415 (Breast Carcinoma)
Method in brief: as §1

[8] = test system: MONO-MAC-6 (Acute Myeloid Leukemia)
Method in brief: as §1

[9] = test system: MS-1 (Small Cell Lung Carcinoma)
Method in brief: as §1

NCI-H226 (Mesothelioma) = test system: NCI-H226 (Mesothelioma)
Method in brief: as §1

[10] = test system: NCI-H3118 (Head and Neck Carcinoma)
Method in brief: as §1

[11] = test system: RCC-JW (Kidney Carcinoma)
Method in brief: as §1

[12] = test system: SCC-4 (Oral Cavity Carcinoma)
Method in brief: as §1

SK-N-SH (Neuroblastoma) = test system: SK-N-SH (Neuroblastoma)
Method in brief: as §1

[13] = test system: SKG-IIIa (Cervical Carcinoma)
Method in brief: as §1

[14] = test system: T84 (Colorectal Carcinoma)
Method in brief: as §1

[15] = test system: ZR-75-30 (Breast Carcinoma)
Method in brief: as §1

Structure (SMILES)	Bliss excess [1]	Bliss excess [2]	Bliss excess (ES6 (Ewing's Sarcoma))	Bliss excess (GAK (Melanoma))	Bliss excess [3]	Bliss excess [4]	Bliss excess (IST-MEL1 (Melanoma))	Bliss excess [5]	Bliss excess [6]	Bliss excess [7]	Bliss excess [8]	Bliss excess [9]	Bliss excess (NCI-H226 (Mesothelioma))	Bliss excess [10]	Bliss excess [11]	Bliss excess [12]	Bliss excess (SK-N-SH (Neuroblastoma))	Bliss excess [13]	Bliss excess [14]	Bliss excess [15]
O=C(c1cc(Cc2n[nH]c(=O)c3ccccc23)ccc1F)N1CCN(C(=O)C2CC2)CC1 [Olaparib] + Cc1c2c(nn1C)CSCc1cc(n(C)n1)CSc1cc(c3ccccc3c1)OCCCc1c(C(=O)O)n(C)c3c-2c(Cl)ccc13 [AZD5991] (first compound max 10 µM, 7x7, partner max 1 µM)	-0.0224	-0.0555	-0.0431	-0.0516	-0.0366	-0.063	-0.0488	-0.0206	-0.0414	-0.0838	0.0434	-0.0481	-0.0583	-0.006	-0.0125	-0.0491	-0.0445	-0.0562	-0.0266	-0.0227
CC1(C)CCC(CN2CCN(c3ccc(C(=O)NS(=O)(=O)c4ccc(NCC5CCOCC5)c([N+](=O)[O-])c4)c(Oc4cnc5[nH]ccc5c4)c3)CC2)=C(c2ccc(Cl)cc2)C1 [Venetoclax] + CS(=O)(=O)CCNCc1ccc(-c2ccc3ncnc(Nc4ccc(OCc5cccc(F)c5)c(Cl)c4)c3c2)o1 [Lapatinib] (first compound max 1 µM, 7x7, partner max 10 µM)	-0.0001	-0.019	-0.0675	0.0293	-0.0355	-0.0665	-0.0234	-0.0319	-0.0412	-0.047	-0.0371	-0.0021	-0.0355	-0.014	-0.0229	-0.0231	0.008	-0.0674	-0.0151	0.0215
C[C@@H](Nc1cc(F)cc(F)c1)c1cc(C(=O)N(C)C)cc2c(=O)cc(N3CCOCC3)oc12 [AZD8186] + CC(=O)c1c(C)c2cnc(Nc3ccc(N4CCNCC4)cn3)nc2n(C2CCCC2)c1=O [Palbociclib] (first compound max 10 µM, 7x7, partner max 10 µM)	-0.0435	-0.0198	-0.0155	0.0192	0.0384	0.0122	0.165	-0.0038	0.0015	-0.0443	0.0726	-0.0484	-0.0662	0.0284	0.0622	0.0328	0.0108	-0.0661	-0.0468	-0.0465
Cc1nc(-c2cn3c(n2)-c2ccc(-c4cnn(C(C)(C)C(N)=O)c4)cc2OCC3)n(C(C)C)n1 [Taselisib] + O=C(Nc1ccc2[nH]nc(-c3ccncc3)c2c1)[C@@H]1CCN(CC(=O)N2CCN(c3ccc(-c4ncccn4)cc3)CC2)C1 [SCH772984] (first compound max 10 µM, 7x7, partner max 5 µM)	0.0551	0.0196	-0.0318	0.0592	0.224	-0.0058	0.106	0.0056	0.0307	-0.0012	0.0832	0.0145	0.0164	0.0633	-0.0167	0.0899	0.0498	0.0751	0.072	0.0556
Cc1cc2ncnn2cc1Nc1ncc2c(n1)n(C1CCOCC1)c(=O)n2C [AZD7648] + COc1cc([C@@H]2c3cc4c(cc3[C@@H](O[C@@H]3O[C@@H]5CO[C@@H](C)O[C@H]5[C@H](O)[C@H]3O)[C@H]3COC(=O)[C@H]23)OCO4)cc(OC)c1O [Etoposide] (first compound max 10 µM, 7x7, partner max 10 µM)	0.0997	0.0611	-0.0009	0.0732	0.0098	-0.0116	0.0192	0.0526	-0.0205	0.0025	0.159	0.0655	0.0215	0.0669	0.132	0.0043	0.0634	0.0558	-0.0105	-0.0044
O=C(c1cc(Cc2n[nH]c(=O)c3ccccc23)ccc1F)N1CCN(C(=O)C2CC2)CC1 [Olaparib] + CC1(C)CCC(CN2CCN(c3ccc(C(=O)NS(=O)(=O)c4ccc(NCC5CCOCC5)c([N+](=O)[O-])c4)c(Oc4cnc5[nH]ccc5c4)c3)CC2)=C(c2ccc(Cl)cc2)C1 [Venetoclax] (first compound max 10 µM, 7x7, partner max 1 µM)	-0.0389	-0.0439	-0.0549	-0.048	-0.0183	-0.0339	0.0186	-0.0212	-0.0413	-0.064	0.0368	-0.0266	-0.0428	-0.028	-0.045	-0.0455	0.0412	-0.0695	-0.0524	-0.0247
O=C(c1cc(Cc2n[nH]c(=O)c3ccccc23)ccc1F)N1CCN(C(=O)C2CC2)CC1 [Olaparib] + CN(CC[C@H](CSC1=CC=CC=C1)NC2=C(C=C(C=C2)S(=O)(=O)NC(=O)C3=CC=C(C=C3)N4CCC(CC4)[C@H](C5=CC=CC=C5C6=CC=C(C=C6)Cl)O)S(=O)(=O)C(F)(F)F)CCO [AZD4320] (first compound max 10 µM, 7x7, partner max 1 µM)	0.0014	-0.0247	-0.0216	-0.0104	-0.0399	0.0167	-0.0373	-0.0339	-0.0388	-0.0718	0.0291	0.0013	-0.047	-0.0182	-0.0532	-0.0161	0.0025	-0.0526	-0.0441	-0.0327
C=CCn1c(=O)c2cnc(Nc3ccc(N4CCN(C)CC4)cc3)nc2n1-c1cccc(C(C)(C)O)n1 [AZD1775] + CCc1c2c(nc3ccc(O)cc13)-c1cc3c(c(=O)n1C2)COC(=O)[C@]3(O)CC [SN-38] (first compound max 1 µM, partner max 0.3 µM)	0.0561	0.0523	-0.0995	-0.0432	-0.0218	-0.0699	-0.0827	0.0015	0.0498	-0.009	-0.0158	-0.0292	-0.0755	-0.0284	-0.0187	-0.0732	-0.019	-0.0319	0.0598	-0.0938
N#Cc1cnc(Nc2cc(NC[C@H]3CNCCO3)c(C(F)(F)F)cn2)cn1 [SRA737] + Nc1ccn([C@@H]2O[C@H](CO)[C@@H](O)C2(F)F)c(=O)n1 [Gemcitabine] (first compound max 10 µM, 7x7, partner max 0.3 µM)	0.0954	0.035	-0.0212	-0.011	0.0843	-0.0365	-0.0023	0.117	0.145	0.115	0.0489	0.0566	0.0349	0.0007	0.0179	–	-0.0168	0.13	0.0819	-0.0408
CN(CCO)CC[C@H](CSc1ccccc1)Nc1ccc(S(=O)(=O)NC(=O)c2ccc(N3CCC([C@@H](O)c4ccccc4-c4ccc(Cl)cc4)CC3)cc2)cc1S(=O)(=O)C(F)(F)F [AZD4320] + CC(=O)O[C@H]1C(=O)[C@@]2(C)[C@H]([C@H](OC(=O)c3ccccc3)[C@]3(O)C[C@H](OC(=O)[C@H](O)[C@@H](NC(=O)c4ccccc4)c4ccccc4)C(C)=C1C3(C)C)[C@]1(OC(C)=O)CO[C@@H]1C[C@@H]2O [Paclitaxel] (first compound max 1 µM, 7x7, partner max 3 µM)	0.0811	0.0262	0.101	0.0815	0.0952	0.08	0.238	0.0719	0.0038	-0.0059	0.0285	0.0825	0.131	0.019	0.0707	0.0946	-0.0254	0.133	-0.0222	0.0901
N#Cc1cnc(Nc2cc(NC[C@H]3CNCCO3)c(C(F)(F)F)cn2)cn1 [SRA737] + O=c1[nH]cc(F)c(=O)[nH]1 [5-Fluorouracil] (first compound max 10 µM, 7x7, partner max 20 µM)	0.0006	-0.036	-0.0508	-0.012	0.036	-0.0622	-0.0223	0.0215	0.0936	0.057	0.0181	-0.0821	-0.0281	0.0141	-0.0355	0.0952	-0.0499	0.0284	0.0458	-0.0283
C=CCn1c(=O)c2cnc(Nc3ccc(N4CCN(C)CC4)cc3)nc2n1-c1cccc(C(C)(C)O)n1 [AZD1775] + Nc1ccn([C@@H]2O[C@H](CO)[C@@H](O)C2(F)F)c(=O)n1 [Gemcitabine] (first compound max 1 µM, partner max 0.3 µM)	0.0713	–	-0.0385	-0.0443	0.0046	-0.0454	0.0144	0.0858	0.0159	0.0228	0.0322	-0.0721	0.0067	-0.0638	-0.0163	-0.0574	-0.0051	0.0393	0.0564	-0.0561
N#Cc1cnc(Nc2cc(NC[C@H]3CNCCO3)c(C(F)(F)F)cn2)cn1 [SRA737] + CCc1c2c(nc3ccc(O)cc13)-c1cc3c(c(=O)n1C2)COC(=O)[C@]3(O)CC [SN-38] (first compound max 10 µM, 7x7, partner max 0.3 µM)	0.0384	0.0694	-0.0423	–	-0.0004	-0.0646	-0.0613	0.0442	0.083	0.0404	-0.0374	-0.0022	-0.0592	-0.0085	-0.0857	0.007	-0.0471	0.0311	-0.0351	-0.0375
C[C@@H]1COCCN1c1cc(C2([S@](C)(=N)=O)CC2)nc(-c2ccnc3[nH]ccc23)n1 [AZD6738] + Nc1ccn([C@@H]2O[C@H](CO)[C@@H](O)C2(F)F)c(=O)n1 [Gemcitabine] (first compound max 10 µM, 7x7, partner max 0.3 µM)	0.032	0.0021	-0.0072	-0.0055	–	-0.027	0.0314	0.0863	0.0853	0.065	0.0427	0.0014	0.041	0.0134	0.0928	0.0044	0.0248	0.0657	0.0477	0.0117

— the supplement of paper PMC11061612
